For test [1], the system named is HTT mRNA. Put plainly: Splicing RT-qPCR assay, HTT canonical (CJ) and alternative (AJ) junction mRNA. It is filed as cell-based, human. Particulars: Homo sapiens, A673 or K562 cells, 24 hours compound treatment; for pIC50: 24 h, read-out: HTT CJ (IC50, decrease in canonical junction mRNA); for AC50: read-out: HTT AJ (AC50, increase in alternative junction mRNA). Here is the method: (§1) Compounds described herein were used to modulate RNA transcript abundance in cells. The expression of a target mRNA was measured by detecting the formation of an exon-exon junction in the canonical transcript (CJ). A compound mediated exon-inclusion event was detected by observing an increase in formation of a new junction with an alternative exon (AJ). Real-time qPCR assays were used to detect these splicing switches and interrogate the potency of various compounds towards different target genes. A high-throughput real time quantitative PCR (RT-qPCR) assay was developed to measure these two isoforms of the mRNA (CJ and AJ) for exemplary genes, such as HTT, SMN2, and MYB, together with a control housekeeping gene, GAPDH or GUSB or PPIA, used for normalization. Briefly, the A673 or K562 cell line was treated with various compounds described herein (e.g., compounds of Formula (I)). After treatment, the levels of the HTT, MYB, or SMN2 mRNA targets were determined from each sample of cell lysate by cDNA synthesis followed by qPCR.
(§2) • Cells-to-CT 1-step kit: ThermoFisher A25602, Cells-to-CT lysis reagent: ThermoFisher 4391851C, TaqMan™ Fast Virus 1-Step Master Mix: ThermoFisher 4444436 • GAPDH: VIC-PL, ThermoFisher 4326317E (Assay: Hs99999905_m1)—used for K562/suspension cell lines • GUSB: VIC-PL, ThermoFisher 4326320E (Assay: Hs99999908_m1)—used for K562/suspension cell lines • PPIA: VIC-PL, ThermoFisher 4326316E (Assay: Hs99999904_m1)—used for A673/adherent cell lines
(§3) The A673 cell line was cultured in DMEM with 10% FBS. Cells were diluted with full growth media and plated in a 96-well plate (15,000 cells in 100 ul media per well). The plate was incubated at 37° C. with 5% CO2 for 24 hours to allow cells to adhere. An 11-point 3-fold serial dilution of the compounds was made in DMSO then diluted in media in an intermediate plate. Compounds were transferred from the intermediate plate to the cell plate with the top dose at a final concentration of 10 uM in the well. Final DMSO concentration was kept at or below 0.25%. The cell plate was returned to the incubator at 37° C. with 5% CO2 for an additional 24 hours.
(§4) The K562 cell line was cultured in IMDM with 10% FBS. For K562, cells were diluted with full growth media and plated in either a 96-well plate (50,000 cells in 50 uL media per well) or a 384-well plate (8,000-40,000 cells in 45 uL media per well). An 11-point 3-fold serial dilution of the compounds were made in DMSO then diluted in media in an intermediate plate. Compound was transferred from the intermediate plate to the cell plate with the top dose at a final concentration of 10 uM in the well. Final DMSO concentration was kept at or below 0.25%. Final volume was 100 uL for 96-well plate and 50 uL for 384-well plate. The cell plate was then placed in an incubator at 37° C. with 5% CO2 for 24 hours.
(§5) The cells were then gently washed with 50 uL-100 uL cold PBS before proceeding to addition of lysis buffer. 30 uL-50 uL of room temperature lysis buffer with DNAse I (and optionally RNAsin) was added to each well. Cells were shaken/mixed thoroughly at room temperature for 5-10 minutes for lysis to take place and then 3 uL-5 uL of room temperature stop solution was added and wells were shaken/mixed again. After 2-5 minutes, the cell lysate plate was transferred to ice for RT-qPCR reaction setup. The lysates could also be frozen at −80° C. for later use.
(§6) In some cases, a direct lysis buffer was used. An appropriate volume of 3× lysis buffer (10 mM Tris, 150 mM NaCl, 1.5%-2.5% Igepal and 0.1-1 U/uL RNAsin, pH 7.4) was directly added to either K562 or A673 cells in media and mixed by pipetting 3 times. The plates were then incubated at room temperature with shaking/rocking for 20-50 minutes to allow for lysis to take place. After this time, the cell lysate plate was transferred to ice to set up for the RT-qPCR reactions. The lysates could also be frozen at −80° C. for later use. […]

The subject of test [2] is MYB mRNA. Put plainly: Splicing RT-qPCR assay, MYB canonical (CJ) and alternative (AJ) junction mRNA. It is filed as cell-based, human. Particulars: Homo sapiens, 24 h, A673 or K562 cells, 24 hours compound treatment, RT-qPCR; for AC50: read-out: MYB AJ (AC50, increase in alternative junction mRNA); for pIC50: read-out: MYB CJ (IC50, decrease in canonical junction mRNA). Here is the method: as §1, §2, §3, §4, §5, §6
(Real-time PCR tracks product formation cycle by cycle.)

IC50 and AC50 data for nine compounds are collected here from patent US20250154169A1, “COMPOUNDS AND METHODS FOR MODULATING SPLICING” (REMIX THERAPEUTICS INC., priority 2021, published 2025).

pIC50: −log10 of the molar value.

Regarding `Cn1cc2c(N3CCNCC3)ccc(C(=O)Nc3ccc4c(c3)oc(=O)n4C)c2n1` [Compound 499, 2-methyl-N-(3-methyl-2-oxo-2,3-dihydrobenzo[d]oxazol-6-yl)-4-(piperazin-1-yl)-2H-indazole-7-carboxamide], in test [1], the pIC50 is below 5.00 and the AC50 was above 10000 nM. Moreover, in test [2], the AC50 is above 10000 nM and the pIC50 was below 5.00.
Take `CCNC1CCN(c2ccc(C/N=C3\C=C(F)c4nc(C)cn4C3)c3nn(C)cc23)CC1` [Compound 500, N-ethyl-1-[7-({[(6E)-8-fluoro-2-methyl-5H-imidazo[1,2-a]pyridin-6-ylidene]amino}methyl)-2-methylindazol-4-yl]piperidin-4-amine]: in test [1], the pIC50 was below 5.00 and the AC50 is above 10000 nM. Further, in test [2], the AC50 was above 10000 nM and the pIC50 is below 5.00.
As for `CCNC1CCN(c2ccc(C(=O)Nc3cn4cc(C)nc4c(F)c3OC)c3oc(C)cc23)CC1` [Compound 501, 4-(4-(ethylamino)piperidin-1-yl)-N-(8-fluoro-7-methoxy-2-methylimidazo[1,2-a]pyridin-6-yl)-2-methylbenzofuran-7-carboxamide 2,2,2-trifluoroacetate], the pIC50 in test [1] and in test [2] was above 7.00 each time. Further, the AC50 in test [1] and in test [2] was below 100 nM in each case.
`C=Cn1cc2c(N3CCC(NC)CC3)ccc(C(=O)Nc3cc(F)c4nc(C)cn4c3)c2n1` [Compound 502, 2-ethenyl-N-{8-fluoro-2-methylimidazo[1,2-a]pyridin-6-yl}-4-[4-(methylamino)piperidin-1-yl]indazole-7-carboxamide]: in test [1], the pIC50 was above 7.00 and the AC50 is 100 to 1000 nM. In test [2], the AC50 was below 100 nM and the pIC50 was above 7.00.
In the case of `C=Cn1cc2c(N3CCC(NCC)CC3)ccc(C(=O)Nc3cc(F)c4nc(C)cn4c3)c2n1` [Compound 503, 2-ethenyl-4-[4-(ethylamino)piperidin-1-yl]-N-{8-fluoro-2-methylimidazo[1,2-a]pyridin-6-yl}indazole-7-carboxamide], the pIC50 in test [1] is 6.00 to 7.00; in test [2], above 7.00. Also, the AC50 in test [1] and in test [2] was below 100 nM throughout.
`COCc1nc2c(F)cc(NC(=O)c3ccc(N4CCNCC4)c4cn(C)nc34)cc2o1` [Compound 504, N-[4-fluoro-2-(methoxymethyl)-1,3-benzoxazol-6-yl]-2-methyl-4-(piperazin-1-yl) indazole-7-carboxamide]: in test [1], the pIC50 is 5.00 to 6.00 and the AC50 lay within 1000 to 10000 nM. For the same compound, in test [2], the AC50 lay within 1000 to 10000 nM and the pIC50 is 5.00 to 6.00.
In the case of `CCn1cc2c(OC3CCNCC3)ccc(C(=O)Nc3cc(F)c4nc(C)cn4c3)c2n1` [Compound 505, 2-ethyl-N-{8-fluoro-2-methylimidazo[1,2-a]pyridin-6-yl}-4-(piperidin-4-yloxy) indazole-7-carboxamide], in test [1], the pIC50 is 5.00 to 6.00 and the AC50 was 1000 to 10000 nM. In test [2], the AC50 fell in the range of 100 to 1000 nM and the pIC50 is 6.00 to 7.00.
With `CCn1cc2c(C3=CCNCC3)ccc(C(=O)Nc3cc(F)c4nc(C)cn4c3)c2n1` [Compound 506, 2-ethyl-N-{8-fluoro-2-methylimidazo[1,2-a]pyridin-6-yl}-4-(1,2,3,6-tetrahydropyridin-4-yl) indazole-7-carboxamide], in test [1], the pIC50 is 6.00 to 7.00 and the AC50 was in the range of 1000 to 10000 nM. For the same compound, in test [2], the AC50 lay in the range of 100 to 1000 nM and the pIC50 was 6.00 to 7.00.
In the case of `Cc1cn2cc(NC(=O)c3ccc(N4CCNCC4)c4cn(C)nc34)nc(C#N)c2n1` [Compound 507, N-{8-cyano-2-methylimidazo[1,2-a]pyrazin-6-yl}-2-methyl-4-(piperazin-1-yl) indazole-7-carboxamide], in test [1], the pIC50 is 5.00 to 6.00 and the AC50 was in the range of 1000 to 10000 nM. Further, in test [2], the AC50 was in the range of 100 to 1000 nM and the pIC50 was 6.00 to 7.00.

By pIC50 is commonly meant −log10 of the IC50, conventionally taken in molar units. Usually AC50 stands for the concentration giving half of the maximal activity seen.
